Experimental data reported in US20090099192A1, “Substituted 1H-pyrrole-2,5-diones” (Bayer CropScience AG, priority 2004, published 2009).

How the values were obtained:
[1] = logP determination by HPLC on reversed-phase column (C 18), EEC Directive 79/831 Annex V.A8; assay type: physicochemical; settings: reversed-phase C 18, 43° C., acid range (0.1% aqueous phosphoric acid, acetonitrile), marked a)
Method in brief: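 Reversed-phase C18 HPLC at 43° C, per EEC Directive 79/831 Annex V.A8, acid range: 0.1% aqueous phosphoric acid with linear 10–90% acetonitrile gradient. logP derived from retention time by linear interpolation between calibrating unbranched alkan-2-ones (C3–C16) of known logP.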

[2] = test system: green peach aphid (Myzus persicae); assay: Myzus test (spray treatment, Brassica pekinensis); assay type: in vivo; settings: for Kill rate in % after 5 d: 500 g/ha, spray, Brassica pekinensis disks
Experimental: (§1) [table] To produce a suitable preparation of active compound, 1 part by weight of active compound is mixed with the stated amounts of solvents and emulsifier, and the concentrate is diluted with emulsifier-containing water to the desired concentration. Disks of Chinese cabbage (Brassica pekinensis) which are infested by all stages of the green peach aphid (Myzus persicae) are sprayed with an active compound preparation of the desired concentration. After the desired period of time, the effect in % is determined. 100% means that all aphids have been killed; 0% means that none of the aphids have been killed.

[3] = test system: larvae of the mustard beetle (Phaedon cochleariae); assay: Phaedon test (spray treatment); assay type: in vivo; settings: for Kill rate in % after 7 d: 500 g/ha, spray, Brassica pekinensis disks
Experimental: (§2) [table] To produce a suitable preparation of active compound, 1 part by weight of active compound is mixed with the stated amounts of solvents and emulsifier, and the concentrate is diluted with emulsifier-containing water to the desired concentration. Disks of Chinese cabbage (Brassica pekinensis) are sprayed with an active compound preparation of the desired concentration and, after drying, populated with larvae of the mustard beetle (Phaedon cochleariae). After the desired period of time, the effect in % is determined. 100% means that all beetle larvae have been killed; 0% means that none of the beetle larvae have been killed.

[4] = test system: caterpillars of the army worm (Spodoptera frugiperda); assay: Spodoptera frugiperda test (corn leaf disks sprayed); assay type: in vivo; settings: for Kill rate in % after 7 d: 500 g/ha, spray, Zea mays leaf disks
Experimental: as §2, with “corn leaves (Zea mays)” for “Chinese cabbage (Brassica pekinensis)”, “caterpillars” for “larvae”, “army worm (Spodoptera frugiperda).” for “mustard beetle (Phaedon cochleariae).”, “caterpillars” for “beetle larvae”

[5] = test system: green peach aphid (Myzus persicae); assay: Myzus test - oral; assay type: in vivo; settings: for Kill rate in % after 6 d: 100 ppm, oral (sucking)
Experimental: as §1, with “solvent,” for “solvents and emulsifier,”, “with” for “with emulsifier-containing”, “Vessels” for “Disks of Chinese cabbage (Brassica pekinensis) which”, “populated with” for “infested by”, “persicae), which” for “persicae)”, “treated by sucking on the” for “sprayed with an”

[6] = test system: common spidermite (Tetranychus urticae); assay: Tetranychus test; assay type: in vivo; settings: for Kill rate in % after 5 d: 500 ppm, spray, Phaseolus vulgaris disks
Experimental: To produce a suitable preparation of active compound, 1 part by weight of active compound is mixed with the stated amounts of solvent and emulsifier, and the concentrate is diluted with emulsifier-containing water to the desired concentration.
Disks of beans (Phaseolus vulgaris), which are infested by all stages of the common spidermite (Tetranychus urticae) are sprayed with an active compound preparation of the desired concentration.
After the desired period of time, the effect in % is determined. 100% means that all spidermites have been killed; 0% means that none of the spidermites have been killed.

[7] = test system: larvae of the mustard beetle (Phaedon cochleariae); assay: Phaedon larvae test (cabbage leaves dipped); assay type: in vivo; settings: for Kill rate in % after 7 d: leaf dip, Brassica oleracea
Experimental: [table] To produce a suitable preparation of active compound, 1 part by weight of active compound is mixed with the stated amount of solvent and the stated amount of emulsifier, and the concentrate is diluted with water to the desired concentration. Cabbage leaves (Brassica oleracea) are treated by being dipped into the active compound preparation of the desired concentration and populated with larvae of the mustard beetle (Phaedon cochleariae) while the leaves are still moist. After the desired period of time, the kill in % is determined. 100% means that all beetle larvae have been killed; 0% means that none of the beetle larvae have been killed.

[8] = test system: caterpillars of the army worm (Spodoptera frugiperda); assay: Spodoptera frugiperda test (cabbage leaves dipped); assay type: in vivo; settings: for Kill rate in % after 7 d: 500 ppm, leaf dip, Brassica oleracea
Experimental: [table] To produce a suitable preparation of active compound, 1 part by weight of active compound is mixed with the stated amount of solvent and the stated amount of emulsifier, and the concentrate is diluted with emulsifier-containing water to the desired concentration. Cabbage leaves (Brassica oleracea) are treated by being dipped into the active compound preparation of the desired concentration and populated with caterpillars of the army worm (Spodoptera frugiperda) while the leaves are still moist. After the desired period of time, the kill in % is determined. 100% means that all caterpillars have been killed; 0% means that none of the caterpillars have been killed.

With `CC(C)(C)C(=O)OC1=C(c2ccccc2Cl)C(=O)N(C2CCCCC2C(F)(F)F)C1=O` (stereo not shown) [Example 206] the logP [1] was “logP = 5.22^a)”, the “activity in the Myzus test (spray, Brassica pekinensis)” value [2] was “good activity” and the “Kill rate in % after 5 d” value [2] was 90%.

For `O=C1C(O)=C(c2ccccc2I)C(=O)N1C1CCCC(C(F)(F)F)C1` (stereo not shown) [Example 219], the “activity in the Phaedon test (spray treatment)” value (“activity in the Phaedon test” for short) [3] was “good activity”, the “Kill rate in % after 7 d” value [3] was 100% and the “activity in the Spodoptera frugiperda test (spray)” value (“activity … (spray)” for short) [4] was “good activity”. For the same molecule, the “Kill rate in % after 7 d” value [4] was 100%, the “activity in the Myzus test (spray, Brassica pekinensis)” value [2] was “good activity” and the “Kill rate in % after 5 d” value [2] was 90%. For the same molecule, the “activity in the Myzus test - oral” value [5] was “good activity” and the “Kill rate in % after 6 d” value [5] was 100%.

For `O=C1C(O)=C(c2ccccc2Br)C(=O)N1C1CCCC(C(F)(F)F)C1` (stereo not shown) [Example 218], the “activity in the Phaedon test” value [3] was “good activity”, the “Kill rate in % after 7 d” value [3] was 100% and the “activity … (spray)” value [4] was “good activity”. The “Kill rate in % after 7 d” value [4] was 100%, the “activity in the Myzus test (spray, Brassica pekinensis)” value [2] was “good activity” and the “Kill rate in % after 5 d” value [2] was 80%.

With `O=C1C(O)=C(c2c(Cl)cc(C(F)(F)F)cc2Cl)C(=O)N1C1CCCC(C(F)(F)F)C1` (stereo not shown) [Example 191] the logP [1] was “logP = 4.05^a)”, the “activity in the Phaedon test” value [3] was “good activity” and the “Kill rate in % after 7 d” value [3] was 100%. For the same molecule, the “activity in the Tetranychus test” value [6] was “good activity” and the “Kill rate in % after 5 d” value [6] was 90%.

With `Cc1ccccc1C1=C(O)C(=O)N(C2CC(C(F)(F)F)CC(C(F)(F)F)C2)C1=O` (stereo not shown) [Example 216] the logP [1] was “logP = 3.85^a)”, the “activity in the Phaedon larvae test” value [7] was “good activity” and the “Kill rate in % after 7 d” value ([7]; 500 ppm) was 100%.

With `O=C1C(O)=C(c2cc(F)cc(F)c2F)C(=O)N1C1CCCC(C(F)(F)F)C1` (stereo not shown) [Example 193] the logP [1] was “logP = 3.42^a)”, the “activity in the Phaedon test” value [3] was “good activity” and the “Kill rate in % after 7 d” value [3] was 100%. The “activity in the Tetranychus test” value [6] was “good activity” and the “Kill rate in % after 5 d” value [6] was 90%.

For `O=C1C(O)=C(c2ccccc2F)C(=O)N1C1CCCC(C(F)(F)F)C1` (stereo not shown) [Example 213], the logP [1] was “logP = 3.42^a)”, the “activity in the Phaedon larvae test” value [7] was “good activity” and the “Kill rate in % after 7 d” value ([7]; 500 ppm) was 100%.

With `O=C1C(O)=C(c2cc(Cl)cc(Cl)c2)C(=O)N1C1CCC(C(F)(F)F)CC1` (stereo not shown) [Example 212] the logP [1] was “logP = 4.48^a)”, the “activity in the Phaedon larvae test” value [7] was “good activity” and the “Kill rate in % after 7 d” value ([7]; 500 ppm) was 100%. For the same molecule, the “activity in the Phaedon test” value [3] was “good activity”, the “Kill rate in % after 7 d” value [3] was 100% and the “activity in the Spodoptera frugiperda test (leaf dip)” value (“activity … (leaf dip)” below) [8] was “good activity”. The “Kill rate in % after 7 d” value [8] was 100%, the “activity … (spray)” value [4] was “good activity” and the “Kill rate in % after 7 d” value [4] was 100%.

In the case of `Cc1cc(C)c(C2=C(O)C(=O)N(Cc3ccccc3)C2=O)c(C)c1` [Example 5], the “activity in the Phaedon larvae test” value [7] is reported as “good activity” and the “Kill rate in % after 7 d” value ([7]; 1000 ppm) is reported as 100%.

For `CC(C)N1C(=O)C(O)=C(c2cccc(C(F)(F)F)c2)C1=O` [Example 6], the “activity in the Phaedon larvae test” value [7] was “good activity” and the “Kill rate in % after 7 d” value ([7]; 1000 ppm) was 100%.

With `O=C1C(O)=C(c2ccccc2Cl)C(=O)N1C1CCC(C(F)(F)F)CC1` (stereo not shown) [Example 210] the logP [1] was “logP = 3.59^a)”, the “activity in the Phaedon larvae test” value [7] was “good activity” and the “Kill rate in % after 7 d” value ([7]; 500 ppm) was 100%.

In the case of `CC1CCCC(N2C(=O)C(O)=C(c3ccccc3Cl)C2=O)C1` (stereo not shown) [Example 196], the logP [1] is reported as “logP = 3.57^a)”, the “activity in the Phaedon test” value [3] is reported as “good activity” and the “Kill rate in % after 7 d” value [3] is reported as 100%. For the same molecule, the “activity … (spray)” value [4] was “good activity”, the “Kill rate in % after 7 d” value [4] was 100% and the “activity in the Myzus test - oral” value [5] was “good activity”. For the same molecule, the “Kill rate in % after 6 d” value [5] was 100%.

With `O=C1C(O)=C(c2ccc(C(F)(F)F)cc2)C(=O)N1c1ccc(C(F)(F)F)cc1` [Example 13] the logP [1] was “logP = 3.51^a)”, the “activity … (leaf dip)” value [8] was “good activity” and the “Kill rate in % after 7 d” value [8] was 100%.

In the case of `CC(C)C1CCCC(N2C(=O)C(O)=C(c3ccccc3Cl)C2=O)C1` (stereo not shown) [Example 195], the “activity in the Phaedon test” value [3] is reported as “good activity”, the “Kill rate in % after 7 d” value [3] is reported as 100% and the “activity … (spray)” value [4] is reported as “good activity”. The “Kill rate in % after 7 d” value [4] was 100%, the “activity in the Myzus test - oral” value [5] was “good activity” and the “Kill rate in % after 6 d” value [5] was 100%.

In the case of `CC(C)(C)C(=O)OC1=C(c2ccccc2I)C(=O)N(C2CCCC(C(F)(F)F)C2)C1=O` (stereo not shown) [Example 221], the “activity in the Phaedon test” value [3] is reported as “good activity”, the “Kill rate in % after 7 d” value [3] is reported as 100% and the “activity in the Myzus test (spray, Brassica pekinensis)” value [2] is reported as “good activity”. The “Kill rate in % after 5 d” value [2] was 100%, the “activity in the Tetranychus test” value [6] was “good activity” and the “Kill rate in % after 5 d” value [6] was 80%.

With `O=C1C(O)=C(c2ccc(C(F)(F)F)cc2)C(=O)N1CC(F)(F)F` [Example 8] the “activity in the Phaedon larvae test” value [7] was “good activity” and the “Kill rate in % after 7 d” value ([7]; 500 ppm) was 100%.

For `CCOCOC1=C(c2ccccc2Cl)C(=O)N(C2CCCC(C(F)(F)F)C2)C1=O` (stereo not shown) [Example 202], the logP [1] was “logP = 4.53^a)”, the “activity in the Phaedon test” value [3] was “good activity” and the “Kill rate in % after 7 d” value [3] was 100%. The “activity … (spray)” value [4] was “good activity”, the “Kill rate in % after 7 d” value [4] was 100% and the “activity in the Myzus test (spray, Brassica pekinensis)” value [2] was “good activity”. The “Kill rate in % after 5 d” value [2] was 80%, the “activity in the Tetranychus test” value [6] was “good activity” and the “Kill rate in % after 5 d” value [6] was 80%.

In the case of `O=C1C(O)=C(c2ccc(OC(F)(F)F)cc2)C(=O)N1c1ccc(OC(F)(F)F)cc1` [Example 9], the logP [1] is reported as “logP = 4.12^a)”, the “activity in the Phaedon larvae test” value [7] is reported as “good activity” and the “Kill rate in % after 7 d” value ([7]; 500 ppm) is reported as 90%.

With `O=C1C(O)=C(c2ccc(OC(F)(F)F)cc2)C(=O)N1c1ccc(C(F)(F)F)cc1` [Example 12] the logP [1] was “logP = 3.97^a)”, the “activity … (leaf dip)” value [8] was “good activity” and the “Kill rate in % after 7 d” value [8] was 100%.

In the case of `O=C1C(O)=C(c2cc(Cl)cc(Cl)c2)C(=O)N1c1ccc(Cl)cc1` [Example 11], the logP [1] is reported as “logP = 3.27^a)”, the “activity … (leaf dip)” value [8] is reported as “good activity” and the “Kill rate in % after 7 d” value [8] is reported as 100%.

For `CC(C)(C)C(=O)OC1=C(c2ccccc2Cl)C(=O)N(C2CCC(C(F)(F)F)CC2)C1=O` (stereo not shown) [Example 207], the logP [1] was “logP = 5.31^a)”, the “activity in the Phaedon test” value [3] was “good activity” and the “Kill rate in % after 7 d” value [3] was 100%. For the same molecule, the “activity in the Myzus test (spray, Brassica pekinensis)” value [2] was “good activity”, the “Kill rate in % after 5 d” value [2] was 100% and the “Kill rate in % after 5 d” value [6] was 90%.

In the case of `O=C1C(O)=C(c2ccc(C(F)(F)F)cc2)C(=O)N1C1CCC(C(F)(F)F)CC1` (stereo not shown) [Example 211], the logP [1] is reported as “logP = 4.28^a)”, the “activity in the Phaedon larvae test” value [7] is reported as “good activity” and the “Kill rate in % after 7 d” value ([7]; 500 ppm) is reported as 90%.

For `CC(C)(c1ccccc1)N1C(=O)C(O)=C(c2cccc(C(F)(F)F)c2)C1=O` [Example 7], the “activity in the Phaedon larvae test” value [7] was “good activity” and the “Kill rate in % after 7 d” value ([7]; 1000 ppm) was 100%.

For `O=C1C(O)=C(c2ccccc2Cl)C(=O)N1C1CCCCC1C(F)(F)F` (stereo not shown) [Example 205], the logP [1] was “logP = 3.27^a)”, the “activity in the Phaedon test” value [3] was “good activity” and the “Kill rate in % after 7 d” value [3] was 100%. The “Kill rate in % after 6 d” value [5] was 100%.
